Columns and labels:
[1] = molecular target: N-type calcium channel (Homo sapiens, UniProt Q00975); test: N-Channel FLIPR (Fluorescent Laser Imaging Plate Reader) assay; assay type: cell-based; conditions: inhibition of 80 mM K+ evoked calcium flux, differentiated IMR32 cells
[2] = tested on: formalin-induced nocifensive behaviours; test: Formalin test; assay type: in vivo, rats
Procedure: II. Formalin Test. The Formalin test assesses the inhibitory effects of orally administered N-type calcium channel antagonists on formalin-induced nocifensive behaviours in rats. The formalin test is a well established pain test (Dubuisson and Dennis, 1977; Wheeler-Aceto et al., 1990; Coderre et al., 1993). This test consists of two distinct phases of formalin-induced behavior. The first phase response, occurring between 0 to 5 minutes, is caused by acute nociception to the noxious chemical (formalin) injected into the paw. This is followed by a quiescent period of between 5 to 15 min post injection. A second phase response, occurring after 15 minutes and lasting up to 60 minutes, is caused by sensitization of the central neurons in the dorsal horn. Central sensitization augments the noxious afferent input and a stronger pain barrage is transmitted into the brain. Inhibition of the second phase response is indicative of a central mechanism of drug action. The procedure for the formalin test is as follows: male rats are placed in a Plexiglas chamber and observed for 30-45 min. to observe their baseline activity. Multiple groups of animals are pretreated with either vehicle or different doses of a test compound. Animals are dosed with the drug of interest either 40 min., if by the intraperitoneal route, or 90 min., if by the oral route, prior to injection of formalin into a hind paw (under the dorsal skin; 0.05 mL of sterile 5% formalin). The number of paw flinches and licks during first phase (0-5 min.) and second phase (20-35 min.) are scored and recorded. […] and lick responses are calculated as percentage of inhibition compared with the mean score of a saline control group. Drug potencies are expressed as the dose which causes 50% of the maximum inhibitory effect (“ID50”). Student t-tests are used for statistical analysis to determine the significance of drug effects. Compounds are considered active based on their ability to inhibit the flinch response.

[3] = tested on: chemo-nociception; conditions: phenylbenzoquinone-induced writhing and formalin test; cited from earlier work

Chain of N-type calcium channel (Q00975 whole entry): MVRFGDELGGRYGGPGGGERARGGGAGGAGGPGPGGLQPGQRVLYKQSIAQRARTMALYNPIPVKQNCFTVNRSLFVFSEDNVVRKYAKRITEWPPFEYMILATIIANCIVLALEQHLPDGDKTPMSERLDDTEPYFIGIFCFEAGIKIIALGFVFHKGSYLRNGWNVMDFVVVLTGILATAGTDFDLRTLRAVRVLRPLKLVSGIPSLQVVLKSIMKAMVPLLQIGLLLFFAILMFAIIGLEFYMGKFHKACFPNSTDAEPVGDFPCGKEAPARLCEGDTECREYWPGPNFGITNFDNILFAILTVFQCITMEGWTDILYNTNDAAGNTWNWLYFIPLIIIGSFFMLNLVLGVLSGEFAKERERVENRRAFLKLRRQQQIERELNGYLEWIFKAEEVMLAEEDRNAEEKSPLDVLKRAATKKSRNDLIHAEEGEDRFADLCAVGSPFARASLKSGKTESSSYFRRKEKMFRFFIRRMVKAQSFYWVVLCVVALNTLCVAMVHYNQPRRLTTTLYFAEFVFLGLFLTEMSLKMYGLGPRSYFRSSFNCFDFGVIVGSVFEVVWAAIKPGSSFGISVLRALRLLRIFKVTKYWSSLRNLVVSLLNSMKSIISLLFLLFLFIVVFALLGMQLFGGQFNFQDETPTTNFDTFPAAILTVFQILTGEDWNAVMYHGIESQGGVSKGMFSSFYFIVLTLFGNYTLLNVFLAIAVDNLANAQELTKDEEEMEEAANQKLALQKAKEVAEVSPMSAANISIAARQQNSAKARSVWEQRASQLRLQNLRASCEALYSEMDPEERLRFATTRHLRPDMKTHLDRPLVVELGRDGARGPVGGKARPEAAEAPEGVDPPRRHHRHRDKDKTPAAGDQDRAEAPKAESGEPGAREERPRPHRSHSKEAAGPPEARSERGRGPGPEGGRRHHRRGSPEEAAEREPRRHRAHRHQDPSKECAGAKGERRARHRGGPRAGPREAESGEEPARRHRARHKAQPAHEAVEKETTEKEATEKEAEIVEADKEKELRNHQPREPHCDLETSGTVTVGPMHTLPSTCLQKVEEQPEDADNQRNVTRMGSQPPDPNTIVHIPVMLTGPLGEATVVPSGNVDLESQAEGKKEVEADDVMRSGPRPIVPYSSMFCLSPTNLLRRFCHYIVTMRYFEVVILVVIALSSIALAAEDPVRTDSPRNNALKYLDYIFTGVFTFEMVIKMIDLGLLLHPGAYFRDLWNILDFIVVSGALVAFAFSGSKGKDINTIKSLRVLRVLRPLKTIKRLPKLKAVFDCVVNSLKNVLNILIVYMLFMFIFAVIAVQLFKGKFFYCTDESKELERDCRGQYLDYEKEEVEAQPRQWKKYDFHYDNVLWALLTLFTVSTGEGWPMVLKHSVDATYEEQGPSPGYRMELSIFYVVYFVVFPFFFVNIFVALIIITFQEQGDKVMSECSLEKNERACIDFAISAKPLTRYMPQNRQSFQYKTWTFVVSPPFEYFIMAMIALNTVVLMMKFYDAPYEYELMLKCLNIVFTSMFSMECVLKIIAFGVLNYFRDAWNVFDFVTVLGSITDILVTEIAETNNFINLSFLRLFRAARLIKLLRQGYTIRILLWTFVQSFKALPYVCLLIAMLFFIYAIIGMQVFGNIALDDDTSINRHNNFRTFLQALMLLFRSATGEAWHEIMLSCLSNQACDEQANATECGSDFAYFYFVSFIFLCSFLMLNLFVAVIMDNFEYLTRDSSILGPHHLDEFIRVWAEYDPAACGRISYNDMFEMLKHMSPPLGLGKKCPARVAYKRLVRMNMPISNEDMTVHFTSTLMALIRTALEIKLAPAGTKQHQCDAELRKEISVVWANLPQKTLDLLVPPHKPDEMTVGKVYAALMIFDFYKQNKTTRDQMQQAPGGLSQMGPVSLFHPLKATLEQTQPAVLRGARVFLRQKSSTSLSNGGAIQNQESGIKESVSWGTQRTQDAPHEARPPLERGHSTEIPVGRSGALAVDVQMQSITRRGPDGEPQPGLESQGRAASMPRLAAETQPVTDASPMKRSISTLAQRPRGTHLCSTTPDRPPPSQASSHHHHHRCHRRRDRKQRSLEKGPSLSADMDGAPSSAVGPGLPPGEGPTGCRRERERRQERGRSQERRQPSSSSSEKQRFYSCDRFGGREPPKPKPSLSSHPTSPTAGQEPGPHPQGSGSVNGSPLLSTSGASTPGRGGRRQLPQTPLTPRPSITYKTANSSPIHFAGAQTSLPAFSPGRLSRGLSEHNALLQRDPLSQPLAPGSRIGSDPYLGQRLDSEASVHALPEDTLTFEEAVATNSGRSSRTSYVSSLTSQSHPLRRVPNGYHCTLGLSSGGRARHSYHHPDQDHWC
Chain of N-type calcium channel (P54289 25-1103 partner): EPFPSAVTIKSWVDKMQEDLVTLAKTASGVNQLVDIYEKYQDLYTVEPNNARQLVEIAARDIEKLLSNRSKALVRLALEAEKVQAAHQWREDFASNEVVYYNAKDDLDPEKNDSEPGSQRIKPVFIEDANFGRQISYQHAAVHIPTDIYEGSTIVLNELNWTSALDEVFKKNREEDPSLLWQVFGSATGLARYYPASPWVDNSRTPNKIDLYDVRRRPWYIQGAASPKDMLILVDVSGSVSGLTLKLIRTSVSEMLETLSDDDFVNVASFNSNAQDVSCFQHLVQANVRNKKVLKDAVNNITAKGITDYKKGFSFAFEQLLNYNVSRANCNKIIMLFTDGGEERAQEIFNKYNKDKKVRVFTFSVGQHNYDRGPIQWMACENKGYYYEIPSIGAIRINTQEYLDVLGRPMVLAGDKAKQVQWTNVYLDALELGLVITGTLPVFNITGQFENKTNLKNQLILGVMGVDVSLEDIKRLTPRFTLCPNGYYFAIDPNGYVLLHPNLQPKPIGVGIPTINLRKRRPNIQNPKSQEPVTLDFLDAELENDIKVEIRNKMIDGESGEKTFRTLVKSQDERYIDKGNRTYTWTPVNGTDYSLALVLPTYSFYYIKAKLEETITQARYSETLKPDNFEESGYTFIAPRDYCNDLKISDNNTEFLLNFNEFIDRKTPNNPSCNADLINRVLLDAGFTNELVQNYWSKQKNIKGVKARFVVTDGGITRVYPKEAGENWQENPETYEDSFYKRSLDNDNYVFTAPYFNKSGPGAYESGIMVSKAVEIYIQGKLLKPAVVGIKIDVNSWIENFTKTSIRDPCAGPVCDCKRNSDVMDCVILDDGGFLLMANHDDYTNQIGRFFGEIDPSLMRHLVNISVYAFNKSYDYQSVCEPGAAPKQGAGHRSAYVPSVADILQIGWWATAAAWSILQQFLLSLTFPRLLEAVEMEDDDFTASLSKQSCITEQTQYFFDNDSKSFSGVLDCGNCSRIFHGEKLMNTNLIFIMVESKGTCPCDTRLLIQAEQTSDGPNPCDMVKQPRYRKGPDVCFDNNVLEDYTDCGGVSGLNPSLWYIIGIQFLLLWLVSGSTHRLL
Chain of N-type calcium channel (P54284 whole entry partner): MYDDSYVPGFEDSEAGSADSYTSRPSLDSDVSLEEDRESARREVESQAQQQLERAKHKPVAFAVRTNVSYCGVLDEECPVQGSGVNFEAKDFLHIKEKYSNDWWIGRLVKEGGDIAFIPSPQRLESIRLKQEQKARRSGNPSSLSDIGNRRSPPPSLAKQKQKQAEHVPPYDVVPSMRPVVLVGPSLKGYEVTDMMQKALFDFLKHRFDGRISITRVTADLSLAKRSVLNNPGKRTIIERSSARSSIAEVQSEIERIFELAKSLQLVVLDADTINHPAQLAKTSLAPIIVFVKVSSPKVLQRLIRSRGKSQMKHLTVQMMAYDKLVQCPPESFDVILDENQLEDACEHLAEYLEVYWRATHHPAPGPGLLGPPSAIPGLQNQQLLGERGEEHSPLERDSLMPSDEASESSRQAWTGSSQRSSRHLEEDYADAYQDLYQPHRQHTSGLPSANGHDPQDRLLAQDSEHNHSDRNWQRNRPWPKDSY

SMILES	IC50 [1] [nM]	other results
CC(C)(C)CNc1cc(Nc2ccc3ncsc3c2)nc2c(F)cccc12 [Example 11, N2-Benzothiazol-6-yl-N4(2,2-dimethyl-propyl)-8-fluoro-quinoline-2,4-diamine]	6870	–
COc1ccc(Nc2cc(NCC(C)(C)C)c3cccc(F)c3n2)cc1OC [Example 8, N2(3,4-Dimethoxy-phenyl)-N4(2,2-dimethyl-propyl)-8-fluoro-quinoline-2,4-diamine]	2820	–
CC(C)(C)CNc1cc(Nc2ccccc2N2CCOCC2)nc2ccccc12 [Example 7, N4(2,2-dimethyl-propyl)-N2(2-morpholin-4-yl-phenyl)-quinoline-2,4-diamine]	670	Formalin test % inhibition (dose, time, route) ([2]; (59, 40, IP)): 24 (59, 40, IP) %
COc1ccccc1CC(=N)N1C[C@@H]2C(=O)CCC(c3ccccc3)(c3ccccc3)[C@@H]2C1 [RP 67,580]	–	analgesia [3]: produced analgesia with potency comparable to that of morphine
CC(C)(C)CNc1cc(Nc2ccc(F)c(Cl)c2)nc2ccccc12 [Example 2, N2(3-chloro-4-fluoro-phenyl)-N4(2,2-dimethyl-propyl)-quinoline-2,4-diamine]	5870	Formalin test % inhibition (dose, time, route) ([2]; (76, 40, IP)): 39 (76, 40, IP) %
COc1ccc(Nc2cc(NCC(C)(C)C)c3ccccc3n2)cc1OC [Example 3, N2(3,4-dimethoxy-phenyl)-N4(2,2-dimethyl-propyl)-quinoline-2,4-diamine]	1720	Formalin test % inhibition (dose, time, route) ([2]; (75, 40, IP)): 22 (75, 40, IP) %

Source: patent US7060834B2, “N-type calcium channel antagonists for the treatment of pain” (AstraZeneca AB, priority 2001, dated 2006)
